Data from patent US9376425B2, “Heterocyclic compounds as MDM2 inhibitors for the treatment of cancer” (AMGEN INC., priority 2011, dated 2016).

Molecular target: T1, human MDM2 (GST-hMDM2 1-188), interaction with biotinylated-p53 (1-83) (Homo sapiens, UniProt Q00987)
T1 construct: Amino acid residues 1-188 of human MDM2 were expressed; made in house; host or cells: Escherichia coli
Test: improved HTRF assay (HTRF2 assay), inhibition of HDM2-p53 interaction
Format: binding
Conditions: 0.2 nM GST-hMDM2, 0.5 nM biotinylated-p53, 100 mM KF
Outline: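 Time-resolved fluorescence (HTRF) read after >4 h equilibration with SA-XLent/anti-GST cryptate/KF detection reagents. Reaction: compound plus GST-hMDM2 for 20 min at room temperature, then E. coli-expressed biotinylated p53 residues 1-83 for 60 min, 2% DMSO final. Inhibition expressed versus nutlin-3.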

T1 sequence (Q00987 1-188): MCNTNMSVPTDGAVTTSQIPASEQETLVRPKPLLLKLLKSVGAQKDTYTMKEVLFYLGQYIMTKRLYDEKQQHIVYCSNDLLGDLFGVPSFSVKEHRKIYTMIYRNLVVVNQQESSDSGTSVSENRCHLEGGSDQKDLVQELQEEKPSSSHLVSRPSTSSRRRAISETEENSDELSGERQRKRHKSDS

| SMILES | IC50 [µM] |
| --- | --- |
| CC(C)(C#N)S(=O)(=O)C[C@H](C1CC1)N1C(=O)[C@@H](CC(=O)O)O[C@H](c2cccc(Cl)c2)[C@H]1c1ccc(Cl)cc1 (single isomer, unassigned) [Example 290, 2-((2R,5R,6R)-6-(3-Chlorophenyl)-5-(4-chlorophenyl)-4-((S)-2-((2-cyanopropan-2-yl)sulfonyl)-1-cyclopropylethyl)-3-oxomorpholin-2-yl)acetic acid or 2-((2S,5R,6R)-6-(3-chlorophenyl)-5-(4-chlorophenyl)-4-((S)-2-((2-cyanopropan-2-yl)sulfonyl)-1-cyclopropylethyl)-3-oxomorpholin-2-yl)acetic acid] | < 0.001 |
| CC[C@@H](CS(=O)(=O)C(C)(C)C)N1C(=O)[C@@H](CC#N)O[C@H](c2cccc(Cl)c2)[C@H]1c1ccc(Cl)cc1 [Example 381, 2-((2R,5R,6R)-4-((S)-1-(tert-Butylsulfonyl)butan-2-yl)-6-(3-chlorophenyl)-5-(4-chlorophenyl)-3-oxomorpholin-2-yl)acetonitrile] | 0.066 |
| NC(=O)C[C@@H]1O[C@H](c2cccc(Cl)c2)[C@@H](c2ccc(Cl)cc2)N([C@H](CN(c2ccccc2F)S(=O)(=O)C2CC2)C2CC2)C1=O (single isomer, unassigned) [Example 256, 2-((2S,5R,6R)-6-(3-chlorophenyl)-5-(4-chlorophenyl)-4-((S)-1-cyclopropyl-2-(N-(2-fluorophenyl)cyclopropanesulfonamido)ethyl)-3-oxomorpholin-2-yl)acetamide or 2-((2R,5R,6R)-6-(3-chlorophenyl)-5-(4-chlorophenyl)-4-((S)-1-cyclopropyl-2-(N-(2-fluorophenyl)cyclopropanesulfonamido)ethyl)-3-oxomorpholin-2-yl)acetamide] | < 0.001 |
| CC[C@@H](CS(=O)(=O)c1ccccc1Cl)N1C(=O)[C@@H](CC(=O)O)O[C@H](c2cccc(Cl)c2)[C@H]1c1ccc(Cl)cc1 (single isomer, unassigned) [Example 138, 2-((2R,5R,6R)-6-(3-chlorophenyl)-5-(4-chlorophenyl)-4-((S)-1-((2-chlorophenyl)sulfonyl)butan-2-yl)-3-oxomorpholin-2-yl)acetic acid or 2-((2S,5R,6R)-6-(3-chlorophenyl)-5-(4-chlorophenyl)-4-((S)-1-((2-chlorophenyl)sulfonyl)butan-2-yl)-3-oxomorpholin-2-yl)acetic acid] | 0.029 |
| C[C@@H](CS(=O)(=O)C(C)(C)C)N1C(=O)[C@@H](CC(=O)N(C)C)O[C@H](c2cccc(Cl)c2)[C@H]1c1ccc(Cl)cc1 (single isomer, unassigned) [Example 232, 2-((2R,5R,6R)-4-((S)-1-(tert-butylsulfonyl)propan-2-yl)-6-(3-chlorophenyl)-5-(4-chlorophenyl)-3-oxomorpholin-2-yl)-N,N-dimethylacetamide or 2-((2S,5R,6R)-4-((S)-1-(tert-butylsulfonyl)propan-2-yl)-6-(3-chlorophenyl)-5-(4-chlorophenyl)-3-oxomorpholin-2-yl)-N,N-dimethylacetamide] | 0.031 |
| CC[C@@H](CS(=O)(=O)C(C)(C)C)N1C(=O)[C@H](Cc2nnn[nH]2)O[C@H](c2cccc(Cl)c2)[C@H]1c1ccc(Cl)cc1 [Example 383, (2S,5R,6R)-2-((1H-Tetrazol-5-yl)methyl)-4-((S)-1-(tert-butylsulfonyl)butan-2-yl)-6-(3-chlorophenyl)-5-(4-chlorophenyl)morpholin-3-one] | < 0.001 |
| CC(C)(C)NS(=O)(=O)C[C@H](C1CC1)N1C(=O)[C@@H](CC(=O)O)O[C@H](c2cccc(Cl)c2)[C@H]1c1ccc(Cl)cc1 (single isomer, unassigned) [Example 293, 2-((2R,5R,6R)-4-((S)-2-(N-(tert-Butyl)sulfamoyl)-1-cyclopropylethyl)-6-(3-chlorophenyl)-5-(4-chlorophenyl)-3-oxomorpholin-2-yl)acetic acid or 2-((2S,5R,6R)-4-((S)-2-(N-(tert-butyl)sulfamoyl)-1-cyclopropylethyl)-6-(3-chlorophenyl)-5-(4-chlorophenyl)-3-oxomorpholin-2-yl)acetic acid] | 0.001 |
